Literature values as cited in patent US8242056B2, “Agriculture actives delivery composition comprising boron and persulfate ion-crosslinked polyvinyl alcohol microcapsules and method of use thereof” (Appleton Papers Inc., priority 2008, dated 2012).
Where two headings read alike, the source gives them in different places.

How the values were obtained:
[1] = half ionized and half un-ionized at its pKa

For `COc1cc(OC)nc(NC(=O)NS(=O)(=O)c2ncccc2C(=O)N(C)C)n1` [nicosulfuron], the pKa [1] is given as 4.3, the Water solubility (pH5) is given as 360 ppm and the Water solubility (pH 6.9) is given as 12,200 ppm. The Water solubility (pH 8.8) was 29,200 ppm.
